This test has as its system HeLa cells. The experiment in a line: 2-AG accumulation assay using HeLa cells. It counts as cell-based. Particulars: for Emax at 10 µM: Homo sapiens, HeLa cell homogenate, 2-AG accumulation relative to MAFP; for Ex. 5 % MAFP @10 μM: 10 μM compound; for Ex. 5 % MAFP @10 μM / Ex. 5 % MAFP @ 1 μM: 2-AG relative to MAFP, HeLa homogenate; for Ex. 5 % MAFP @ 1 μM: 1 μM compound.

Setting [1] is: compound @10 μM (second of two columns with the same head), read-out: Ex. 5 % MAFP @10 μM (second column).
The mark [2] stands for this setting: compound @10 μM as printed (first of two columns with the same head), read-out: Ex. 5 % MAFP @10 μM (first column).

Like-named read-outs stand apart in the source and are kept apart here.

As to `CC(C)n1c(C(F)(F)F)nc2cc(C(=O)N3CC(N4CCN(c5ncccn5)CC4)C3)ccc21` [compound 16, 1-(1-Methylethyl)-5-{[3-(4-pyrimidin-2-ylpiperazin-1-yl)azetidin-1-yl]carbonyl}-2-(trifluoromethyl)-1H-benzimidazole], the Emax at 10 µM under setting [1] amounted to 91.5%.
As for `O=C(c1ccc(OCc2ccccc2)cc1)N1CC(N2CCN(c3ncccn3)CC2)C1` [compound 111, 2-[4-(1-{[4-(Benzyloxy)phenyl]carbonyl}azetidin-3-yl)piperazin-1-yl]pyrimidine], the Emax at 10 µM under setting [1] was 106%.
Still for that read-out and setting: the value for `O=C(c1ccc(-c2ccccc2Cl)cc1)N1CC(N2CCN(c3ncccn3)CC2)C1` [compound 8, 2-(4-{1-[(2′-Chlorobiphenyl-4-yl)carbonyl]azetidin-3-yl}piperazin-1-yl)pyrimidine] was 58.3%.
Take `CN(CC1CCCCC1)c1ccc(CCC(=O)N2CC(N3CCN(c4ccccn4)CC3)C2)cc1` [compound 40, N-(Cyclohexylmethyl)-N-methyl-4-{3-oxo-3-[3-(4-pyridin-2-ylpiperazin-1-yl)azetidin-1-yl]propyl}aniline]: the Emax at 10 µM under setting [1] turned out to be 90.4% and the Emax at 10 µM under setting [2] is 77.3%.
Consider `O=C(c1ccc(-c2ccccc2)c(F)c1)N1CC(N2CCN(c3ccccn3)CC2)C1` [compound 60, 1-{1-[(2-Fluorobiphenyl-4-yl)carbonyl]azetidin-3-yl}-4-pyridin-2-ylpiperazine], for which the Emax at 10 µM came out at 57.8% under setting [1] and 28.2% under setting [2].
With `O=C(c1ccc(-c2ccccc2)c(F)c1)N1CC(N2CCN(c3ncccn3)CC2)C1` [compound 26, 2-(4-{1-[(2-Fluorobiphenyl-4-yl)carbonyl]azetidin-3-yl}piperazin-1-yl)pyrimidine], the Emax at 10 µM under setting [1] came to 125%.
Still for that read-out and setting: the value for `O=C(c1ccc(N2CCCCCC2)cc1)N1CC(N2CCN(c3ccccn3)CC2)C1` [compound 3, 1-(4-{[3-(4-Pyridin-2-ylpiperazin-1-yl)azetidin-1-yl]carbonyl}phenyl)azepane] was 67.3%; that for `O=C(/C=C/c1ccc(SC(F)(F)F)cc1)N1CC(N2CCN(c3ccccn3)CC2)C1` [compound 41, 1-Pyridin-2-yl-4-{1-[(2E)-3-(4-[(trifluoromethyl)sulfanyl]phenyl}prop-2-enoyl]azetidin-3-yl}piperazine] was 66.8%.
For the molecule `O=C(c1cccc(-c2ccc(F)cc2)c1)N1CC(N2CCN(c3ccccn3)CC2)C1` [compound 52, 1-{1-[(4′-Fluorobiphenyl-3-yl)carbonyl]azetidin-3-yl}-4-pyridin-2-ylpiperazine], the Emax at 10 µM by setting is: under setting [1], 52.2%; under setting [2], 28%.
As to `CCCCc1ccc(C(=O)N2CC(N3CCN(c4ccccn4)CC3)C2)cc1` [compound 35, 1-{1-[(4-Butylphenyl)carbonyl]azetidin-3-yl}-4-pyridin-2-ylpiperazine], under setting [1], the Emax at 10 µM turned out to be 66.7%.
Same read-out and setting: as for `O=C(c1ccc(N2CCCC2)cc1)N1CC(N2CCN(c3ncccn3)CC2)C1` [Compound #2, 2-(4-{1-[(4-Pyrrolidin-1-ylphenyl)carbonyl]azetidin-3-yl}piperazin-1-yl)pyrimidine], the figure is 105%.
In the case of `O=C(c1ccc(C2CCCCC2)cc1)N1CC(N2CCN(c3nccs3)CC2)C1` [compound 6, 1-{1-[(4-Cyclohexylphenyl)carbonyl]azetidin-3-yl}-4-(1,3-thiazol-2-yl)piperazine], the Emax at 10 µM by setting is: under setting [1], 41.5%; under setting [2], 24.3%.
Consider `N#Cc1cccnc1N1CCN(C2CN(C(=O)c3ccc(-c4ccccc4)cc3)C2)CC1` [compound 23, 2-(4-[1-(Biphenyl-4-ylcarbonyl)azetidin-3-yl]piperazin-1-yl}pyridine-3-carbonitrile], for which the Emax at 10 µM under setting [1] turned out to be 96.8%.
For the molecule `CCCc1cc2cc(C(=O)N3CC(N4CCN(c5ccccn5)CC4)C3)ccc2n1C` [Compound #213], the “Ex. 5 % MAFP @10 μM” value turned out to be 61.1 % MAFP.
On the same count and under the same terms, as for `CC(C)Cn1c(-c2ccccc2)cc2cc(C(=O)N3CC(N4CCN(c5ccccn5)CC4)C3)ccc21` [Compound #214], the figure is 93.5 % MAFP.
`O=C(c1ccc(-c2ccc(Cl)c(Cl)c2)cc1)N1CC(N2CCN(c3ncccn3)CC2)C1` [compound 11, 2-(4-{1-[(3′,4′-Dichlorobiphenyl-4-yl)carbonyl]azetidin-3-yl}piperazin-1-yl)pyrimidine]: the Emax at 10 µM under setting [1] was 55.2%.
`O=C(c1ccc(OCc2ccccc2)cc1)N1CC(N2CCN(c3ccccn3)CC2)C1` [compound 112, 1-(1-{[4-(Benzyloxy)phenyl]carbonyl}azetidin-3-yl)-4-pyridin-2-ylpiperazine]: the Emax at 10 µM under setting [1] was found to be 79.2%.
On the same count and under the same terms, as for `O=C(c1ccccc1)c1cccc(C(=O)N2CC(N3CCN(c4ccccn4)CC3)C2)c1` [compound 86, Phenyl(3-{[3-(4-pyridin-2-ylpiperazin-1-yl)azetidin-1-yl]carbonyl}phenyl)methanone], the figure is 10.4%; as for `O=C(c1ccc(Oc2ccccc2)cc1)N1CC(N2CCN(c3ncccn3)CC2)C1` [Compound #20, 2-(4-{1-[(4-Phenoxyphenyl)carbonyl]azetidin-3-yl}piperazin-1-yl)pyrimidine], 71.9%.
As for `O=C(Nc1ccc(C(=O)N2CC(N3CCN(c4ccccn4)CC3)C2)cc1)C1CCCCC1` [compound 27, N-(4-{[3-(4-Pyridin-2-ylpiperazin-1-yl)azetidin-1-yl]carbonyl}phenyl)cyclohexanecarboxamide], the Emax at 10 µM under setting [1] is 110% and the Emax at 10 µM under setting [2] stood at 66.2%.
As to `O=C(c1ccccc1)c1ccc(C(=O)N2CC(N3CCN(c4ccccn4)CC3)C2)cc1` [compound 74, Phenyl(4-{[3-(4-pyridin-2-ylpiperazin-1-yl)azetidin-1-yl]carbonyl}phenyl)methanone], the Emax at 10 µM under setting [1] came out at 29.5%.
For `CCN(CC)c1ccc(C(=O)N2CC(N3CCN(c4ccccn4)CC3)C2)cc1` [compound 37, N,N-Diethyl-4-{[3-(4-pyridin-2-ylpiperazin-1-yl)azetidin-1-yl]carbonyl}aniline], the Emax at 10 µM runs as follows: under setting [1], 65.9%; under setting [2], 32%.
Take `COc1cccc(-c2nc3cc(C(=O)N4CC(N5CCN(c6ccccn6)CC5)C4)ccc3o2)c1` [Compound #216]: the “Ex. 5 % MAFP @10 μM” value came out at 86.9 % MAFP.
For `O=C(Cc1ccc(-c2ccccc2)cc1)N1CC(N2CCN(c3ccccn3)CC2)C1` [compound 88, 1-[1-(Biphenyl-4-ylacetyl)azetidin-3-yl]-4-pyridin-2-ylpiperazine], under setting [1], the Emax at 10 µM was found to be 2.8%.
On the same count and under the same terms, the value for `Cc1nc2cc(C(=O)N3CC(N4CCN(c5ncccn5)CC4)C3)ccc2n1-c1ccccc1` [compound 14, 2-Methyl-1-phenyl-5-{[3-(4-pyrimidin-2-ylpiperazin-1-yl)azetidin-1-yl]carbonyl}-1H-benzimidazole] was 106%.
Consider `CC(C)(C)c1nc2ccc(C(=O)N3CC(N4CCN(c5ccccn5)CC4)C3)cc2o1` [Compound #209], for which the “Ex. 5 % MAFP @ 1 μM” value is recorded as 19.9 % MAFP and the “Ex. 5 % MAFP @10 μM” value is given as 47.3 % MAFP.
Regarding `CN(C)c1ccc(C(=O)N2CC(N3CCN(c4ncccn4)CC3)C2)cc1` [compound 28, N,N-Dimethyl-4-{[3-(4-pyrimidin-2-ylpiperazin-1-yl)azetidin-1-yl]carbonyl}aniline], the Emax at 10 µM under setting [1] stood at 82.2%.
On the same count and under the same terms, the value for `Cc1nc2cc(C(=O)N3CC(N4CCN(c5ncccn5)CC4)C3)ccc2n1C1CCCCC1` [compound 17, 1-Cyclohexyl-2-methyl-5-{[3-(4-pyrimidin-2-ylpiperazin-1-yl)azetidin-1-yl]carbonyl}-1H-benzimidazole] was 83.9%.
On the same count and under the same terms, as for `CCCn1ccc2cc(C(=O)N3CC(N4CCN(c5ccccn5)CC4)C3)ccc21` [compound 31, 1-Propyl-5-{[3-(4-pyridin-2-ylpiperazin-1-yl)azetidin-1-yl]carbonyl}-1H-indole], the figure is 69.5%.
Turning to `CN(c1ccc(C(=O)N2CC(N3CCN(c4ccccn4)CC3)C2)cc1)C1CCCCC1` [Compound #1, N-Cyclohexyl-N-methyl-4-{[3-(4-pyridin-2-ylpiperazin-1-yl)azetidin-1-yl]carbonyl}aniline], under setting [1], the Emax at 10 µM was determined as 70.5%.
Still for that read-out and setting: the value for `N#Cc1cccnc1N1CCN(C2CN(C(=O)c3ccc(C4CCCCC4)cc3)C2)CC1` [Compound #21, 2-(4-{1-[(4-Cyclohexylphenyl)carbonyl]azetidin-3-yl}piperazin-1-yl)pyridine-3-carbonitrile] was 79.5%.
Still for that read-out and setting: the value for `O=C(c1cccc2c1Cc1ccccc1-2)N1CC(N2CCN(c3ccccn3)CC2)C1` [compound 96, 1-[1-(9H-Fluoren-1-ylcarbonyl)azetidin-3-yl]-4-pyridin-2-ylpiperazine] was 0%.
As to `O=C(c1ccc2nc(C3CCCCC3)oc2c1)N1CC(N2CCN(c3ccccn3)CC2)C1` [Compound #211], the “Ex. 5 % MAFP @ 1 μM” value came to 39.7 % MAFP and the “Ex. 5 % MAFP @10 μM” value came to 100.8 % MAFP.
For the molecule `CC(C)Cc1cc2cc(C(=O)N3CC(N4CCN(c5ccccn5)CC4)C3)ccc2n1CC(C)C` [Compound #212], the “Ex. 5 % MAFP @10 μM” value is reported as 72.9 % MAFP.
Regarding `O=C(c1ccc(C2CCCCC2)cc1)N1CC(N2CCN(c3ccccn3)CC2)C1` [compound 15, 1-{1-[(4-Cyclohexylphenyl)carbonyl]azetidin-3-yl}-4-pyridin-2-ylpiperazine], the Emax at 10 µM under setting [1] amounted to 47.6%.
Still for that read-out and setting: as for `CN(c1ccccc1)c1ccc(C(=O)N2CC(N3CCN(c4ccccn4)CC3)C2)cc1` [compound 18, N-Methyl-N-phenyl-4-{[3-(4-pyridin-2-ylpiperazin-1-yl)azetidin-1-yl]carbonyl}aniline], the figure is 66.2%.
For the molecule `O=C(c1ccc2nc(C3CCCCC3)oc2c1)N1CC(N2CCN(c3ncccn3)CC2)C1` [compound 10, 2-Cyclohexyl-6-{[3-(4-pyrimidin-2-ylpiperazin-1-yl)azetidin-1-yl]carbonyl}-1,3-benzoxazole], the Emax at 10 µM is, setting by setting: under setting [1], 115%; under setting [2], 97.8%.

The record behind these values is US20130184251A1, “HETEROAROMATIC AND AROMATIC PIPERAZINYL AZETIDINYL AMIDES AS MONOACYLGLYCEROL LIPASE INHIBITORS” (Janssen Pharmaceutica, NV, priority 2009, published 2013).
